Measured values published in paper PMC5201116, “Bioactive Flavonoids and Catechols as Hif1 and Nrf2 Protein Stabilizers - Implications for Parkinson’s Disease” (Aging and Disease, 2016).

Key:
[1] = tested on: C57Bl6 mice, MPTP model of Parkinson's disease; test: Acute MPTP mouse model: striatal dopamine and metabolites by HPLC; type: in vivo
Experimental: Acute MPTP-intoxication paradigm was used to test the neuroprotective effects of NDGA using male C57Bl6 mice. In this protocol, 10-week-old C57Bl6 mice (n = 8-10 per group) were divided into four different groups consisting of 1) a control group treated with saline alone; 2) a group treated with MPTP alone; 3) a group treated with NDGA alone and; 4) group treated with NDGA in combination with MPTP. NDGA was dissolved in 1:4 ethanol:neobee oil (a derivative of coconut oil). MPTP 10 mg/kg free base was administered intraperitoneally three times a day every two hours. Animals with NDGA in combination with MPTP were administered NDGA by oral gavage with 50 and 100mg/kg/day body weight of the drug in 100 microliter volume once a day for 4 days before MPTP and once a day for 3 days after MPTP. On the day of MPTP NDGA was administered to mice 2 hours before the initiation of MPTP. Animals belonging to MPTP and control groups received the vehicle (ethanol:neobee oil, 1:4) whereas the drug alone group received respective doses of NDGA at the same frequency. All animals were sacrificed on the 7th day after MPTP.
Striatal levels of dopamine (DA) and its metabolites 3, 4-dihydroxyphenylacetic acid (DOPAC), and homovanillic acid (HVA) were measured after sonication and centrifugation in chilled 0.1 M perchloric acid (PCA, 100 µl/mg tissue) as previously described. Briefly, 15 µl supernatant was isocratically eluted through an 80 x 4.6 mm C18 column (ESA, Inc. Chelmsford, MA) with a mobile phase containing 0.1 M LiH2PO4, 0.85 mM 1-octanesulfonic acid and 10% (v/v) methanol and detected by a 2-channel Coulochem II electrochemical detector (ESA, Inc. Chelmsford, MA). Concentrations of dopamine, DOPAC and HVA are expressed as ng per mg protein. The protein concentrations of tissue homogenates were measured according to BCA assay (Pierce Biotech). For MPP+ measurement NDGA was administered at a dose of 100mg/kg/day once daily for four days followed by a dose on the 5th day 30 minutes before MPTP (30mg/kg free base). Striatal tissues were sonicated and centrifuged in 0.1 M PCA and an aliquot of supernatant was injected onto a Brownlee aquapore x 03-224 cation exchange column (Rainin, Woburn, MA). Samples were eluted isocratically with 20 mM boric acid-sodium borate buffer, pH 7.75, containing 3 mM tetrabutylammonium hydrogen sulfate, 0.25 mM 1-heptanesulfonic acid and 10% isopropanol. MPP^+ levels were detected with a fluorescence detector set by excitation at 295 nm and emission at 375nm.

[2] = tested on: HRE-luciferase reporter (HT22 hippocampal cell line); test: HRE-luc reporter assay; type: cell-based; details: Mus musculus, HT-22, 3 h; at 10 µM; read-out: HRE-luc fold activation
[3] = Iron binding constant, calcein displacement assay; type: physicochemical; details: calcein displacement
Source text: Calcein displacement assay in the presence of varied concentrations of flavonoids and catechols has been used. Calcein release from its complex with iron was monitored by fluorescence as described in [26].

[4] = tested on: HIF1 ODD-luc reporter (SH-SY5Y cell line); test: HIF1 ODD-luc reporter assay; type: cell-based; details: Homo sapiens, SH-SY5Y
[5] = tested on: Neh2-luc reporter (SH-SY5Y cell line); test: Neh2-luc reporter assay; type: cell-based; details: Homo sapiens, SH-SY5Y
[6] = NDGA+MPTP group, NDGA 100mg/kg/day oral, 7th day after MPTP

## CC(Cc1ccc(O)c(O)c1)C(C)Cc1ccc(O)c(O)c1 (centres unmarked) [compound 28, 4,4'-(2,3-dimethylbutane-1,4-diyl)dibenzene-1,2-diol]
[1]; NDGA 50mg/kg/day
  protection against MPTP-induced loss of striatal dopamine, DOPAC and HVA: not
[1]; NDGA 100mg/kg/day
  protection against MPTP-induced loss of striatal dopamine, DOPAC and HVA: protected
[1]; NDGA alone group, oral gavage
  Striatal DOPAC: 7.59 ± 1.35 ng/mg protein
  Striatal DOPAMINE: 88.4 ± 6.2 ng/mg protein
  Striatal HVA: 7.5 ± 1.66 ng/mg protein
[1]; [6]
  Striatal DOPAC: 6.04 ± 1.14 ng/mg protein
  Striatal DOPAMINE: 55.3 ± 5.7 ng/mg protein
  Striatal HVA: 7.4 ± 0.96 ng/mg protein
[2]
  fold induction at 10 µM: 2 ± 0.2
[3]
  Iron complex Diss. Const: 2.5 ± 0.3 µM
[4]
  EC50: ~2 µM
[4]; 3 h, at 10 µM, 3 h incubation, read-out: ODD-luc fold activation
  fold induction at 10 µM: 2
[5]; Neh2-luc
  EC50: 2 µM
[5]; at 10 µM, 3 h incubation, read-out: Neh2-luc fold activation
  fold induction at 10 µM: 15 ± 1.8
